Data taken from ChEMBL document CHEMBL1201862, “PubChem BioAssay data set” (2004).
Values joined by “and” are separate entries in the source; they are usually repeats but may differ in a detail not shown here. Equal entries are not always repeated. Each block holds one compound with its values, some of them ahead of it. Active and inactive are the calls of the source.

What was measured:
Type in all cases: functional
[1] = target: Beta-2 adrenergic receptor (Homo sapiens, UniProt P07550); experiment: beta2AR agonists driving receptor internalization, dose response, cell-based, FAP fluorogen, flow cytometry, cherry pick 1 (AID 588763)
Chain of Beta-2 adrenergic receptor (P07550 whole entry): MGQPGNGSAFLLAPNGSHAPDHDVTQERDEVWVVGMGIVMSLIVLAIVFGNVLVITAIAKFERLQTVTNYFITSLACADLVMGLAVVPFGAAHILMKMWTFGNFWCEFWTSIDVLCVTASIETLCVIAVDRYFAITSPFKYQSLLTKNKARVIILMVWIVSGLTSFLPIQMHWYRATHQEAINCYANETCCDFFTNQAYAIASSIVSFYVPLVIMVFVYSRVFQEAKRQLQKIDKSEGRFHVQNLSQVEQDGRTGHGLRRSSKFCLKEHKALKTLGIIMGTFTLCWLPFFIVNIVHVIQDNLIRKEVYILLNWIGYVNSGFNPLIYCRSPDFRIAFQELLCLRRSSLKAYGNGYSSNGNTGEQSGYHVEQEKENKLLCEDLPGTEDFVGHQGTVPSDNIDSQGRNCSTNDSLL

[2] = target: Lysine-specific demethylase 4C (Homo sapiens, UniProt Q9H3R0); experiment: GASC-1 (JMJD2C) histone demethylase inhibitors, dose response, biochemical, DELFIA europium, cherry-picked samples (AID 488835)
Chain of Lysine-specific demethylase 4C (Q9H3R0 whole entry): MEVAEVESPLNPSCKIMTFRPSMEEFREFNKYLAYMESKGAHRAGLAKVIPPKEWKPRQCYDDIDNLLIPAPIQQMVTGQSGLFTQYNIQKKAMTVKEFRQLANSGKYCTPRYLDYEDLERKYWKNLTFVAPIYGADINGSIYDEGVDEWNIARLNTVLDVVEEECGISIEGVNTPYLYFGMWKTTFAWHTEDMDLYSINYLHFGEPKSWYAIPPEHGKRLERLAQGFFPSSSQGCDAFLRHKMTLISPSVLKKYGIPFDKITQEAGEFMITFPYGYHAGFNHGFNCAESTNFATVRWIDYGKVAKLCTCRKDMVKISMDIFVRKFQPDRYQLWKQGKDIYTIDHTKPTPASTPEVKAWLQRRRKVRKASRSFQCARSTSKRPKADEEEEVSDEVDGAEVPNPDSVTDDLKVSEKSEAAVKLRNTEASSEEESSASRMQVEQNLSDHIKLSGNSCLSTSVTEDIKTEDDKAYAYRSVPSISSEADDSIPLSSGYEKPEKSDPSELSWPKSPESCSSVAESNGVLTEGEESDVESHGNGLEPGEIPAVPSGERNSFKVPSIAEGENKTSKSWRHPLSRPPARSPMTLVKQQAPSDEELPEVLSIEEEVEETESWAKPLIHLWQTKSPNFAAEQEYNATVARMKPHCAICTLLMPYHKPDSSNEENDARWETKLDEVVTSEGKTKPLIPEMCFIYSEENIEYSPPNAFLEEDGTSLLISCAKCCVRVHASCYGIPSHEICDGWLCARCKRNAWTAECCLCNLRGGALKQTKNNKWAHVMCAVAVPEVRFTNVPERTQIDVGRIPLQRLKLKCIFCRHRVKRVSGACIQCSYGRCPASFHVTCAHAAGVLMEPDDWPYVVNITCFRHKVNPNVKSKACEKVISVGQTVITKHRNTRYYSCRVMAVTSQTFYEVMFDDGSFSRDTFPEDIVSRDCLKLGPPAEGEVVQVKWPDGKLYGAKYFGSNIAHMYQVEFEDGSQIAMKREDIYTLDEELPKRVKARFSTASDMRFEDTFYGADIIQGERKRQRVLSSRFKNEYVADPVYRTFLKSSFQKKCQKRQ

[3] = target: Serine/threonine-protein kinase pim-1 (Homo sapiens, UniProt P11309)
[4] = target: Serine/threonine-protein kinase pim-3 (Homo sapiens, UniProt Q86V86);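 note: value obtained as one member of a broad kinase panel profiling effort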
[5] = target: Mitogen-activated protein kinase kinase kinase kinase 5 (Homo sapiens, UniProt Q9Y4K4);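 note: measured as one member of a kinome-spanning kinase panel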
Chain of Mitogen-activated protein kinase kinase kinase kinase 5 (Q9Y4K4 whole entry): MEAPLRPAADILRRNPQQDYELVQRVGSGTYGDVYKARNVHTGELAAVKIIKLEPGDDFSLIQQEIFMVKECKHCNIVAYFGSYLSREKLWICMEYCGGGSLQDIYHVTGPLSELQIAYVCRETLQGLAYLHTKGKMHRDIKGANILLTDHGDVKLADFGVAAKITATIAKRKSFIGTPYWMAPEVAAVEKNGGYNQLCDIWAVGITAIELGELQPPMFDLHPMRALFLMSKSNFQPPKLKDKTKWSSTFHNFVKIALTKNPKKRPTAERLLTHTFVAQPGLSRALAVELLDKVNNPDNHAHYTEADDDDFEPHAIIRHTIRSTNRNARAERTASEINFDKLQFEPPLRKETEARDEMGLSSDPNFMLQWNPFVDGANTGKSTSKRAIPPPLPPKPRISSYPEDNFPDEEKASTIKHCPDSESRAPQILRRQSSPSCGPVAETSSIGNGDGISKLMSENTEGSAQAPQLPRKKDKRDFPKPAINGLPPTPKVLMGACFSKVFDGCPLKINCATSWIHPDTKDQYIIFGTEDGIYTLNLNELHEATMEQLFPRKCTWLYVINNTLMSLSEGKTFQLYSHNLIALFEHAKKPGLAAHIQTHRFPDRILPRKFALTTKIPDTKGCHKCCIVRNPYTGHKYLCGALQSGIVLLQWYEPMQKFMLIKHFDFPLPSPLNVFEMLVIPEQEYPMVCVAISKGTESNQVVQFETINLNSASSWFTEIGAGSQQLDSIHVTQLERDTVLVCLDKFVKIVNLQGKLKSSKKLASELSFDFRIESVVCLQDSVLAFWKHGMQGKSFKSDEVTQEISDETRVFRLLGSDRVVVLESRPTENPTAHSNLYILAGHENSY

[6] = target: Glycogen synthase kinase-3 beta (Homo sapiens, UniProt P49841);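 note: value comes from a broad kinome profiling panel, with GSK3B as the panel member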
[7] = target: Mitogen-activated protein kinase kinase kinase kinase 4 (Homo sapiens, UniProt O95819)
[8] = target: Serine/threonine-protein kinase BRSK1 (Homo sapiens, UniProt Q8TDC3);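 note: measured within a kinome-wide kinase panel, with the target listed as KIAA1811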
Chain of Serine/threonine-protein kinase BRSK1 (Q8TDC3 whole entry): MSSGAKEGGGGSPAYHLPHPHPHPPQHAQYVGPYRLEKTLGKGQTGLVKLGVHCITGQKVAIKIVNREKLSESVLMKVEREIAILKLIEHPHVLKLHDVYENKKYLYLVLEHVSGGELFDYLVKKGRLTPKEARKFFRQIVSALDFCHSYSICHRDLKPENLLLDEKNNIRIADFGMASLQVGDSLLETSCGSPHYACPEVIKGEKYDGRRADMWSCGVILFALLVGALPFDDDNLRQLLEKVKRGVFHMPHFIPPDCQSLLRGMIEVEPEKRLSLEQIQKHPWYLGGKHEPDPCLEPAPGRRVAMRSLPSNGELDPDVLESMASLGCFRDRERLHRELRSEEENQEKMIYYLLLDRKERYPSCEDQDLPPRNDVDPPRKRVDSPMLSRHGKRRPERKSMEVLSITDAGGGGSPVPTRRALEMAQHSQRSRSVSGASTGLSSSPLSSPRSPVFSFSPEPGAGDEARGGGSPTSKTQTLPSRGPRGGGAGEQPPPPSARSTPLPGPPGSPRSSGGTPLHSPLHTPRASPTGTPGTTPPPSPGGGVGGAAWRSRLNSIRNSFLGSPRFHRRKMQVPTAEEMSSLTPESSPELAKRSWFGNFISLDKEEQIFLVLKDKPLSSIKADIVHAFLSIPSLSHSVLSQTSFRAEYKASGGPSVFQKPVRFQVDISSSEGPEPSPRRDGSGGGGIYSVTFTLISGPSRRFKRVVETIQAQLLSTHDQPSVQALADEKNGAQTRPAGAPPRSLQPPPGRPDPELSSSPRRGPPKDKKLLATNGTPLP

[9] = target: T1, Kappa-type opioid receptor (Homo sapiens, UniProt P41145); experiment: SAR analysis of small molecule agonists of the kappa opioid receptor via a luminescent beta-arrestin assay. [Related pubchem assays (depositor defined):AID1777, AID1786, AID1966, AID2133, AID2136, AID2348, AID2352, AID2357, AID2359, AID2370, AID2420, AID2478, AID2491, AID2492, AID2493, AID2497, AID2498, AID2500, AID449737, AID488822, AID488842]
T1 sequence (P41145 whole entry): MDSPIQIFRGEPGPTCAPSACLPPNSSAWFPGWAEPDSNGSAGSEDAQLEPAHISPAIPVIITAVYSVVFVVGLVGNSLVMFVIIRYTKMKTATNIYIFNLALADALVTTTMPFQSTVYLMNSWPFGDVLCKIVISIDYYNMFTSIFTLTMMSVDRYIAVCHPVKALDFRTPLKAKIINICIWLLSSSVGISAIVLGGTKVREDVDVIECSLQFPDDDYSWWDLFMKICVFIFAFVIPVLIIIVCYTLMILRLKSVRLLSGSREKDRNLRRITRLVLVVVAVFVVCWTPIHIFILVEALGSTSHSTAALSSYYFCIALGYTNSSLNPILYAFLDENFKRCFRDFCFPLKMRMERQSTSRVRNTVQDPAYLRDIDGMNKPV

[10] = target: T2, Mu-type opioid receptor (Homo sapiens, UniProt P35372); experiment: MOR agonists by imaging, SAR follow-up, image-based (AID 2352)
T2 sequence (P35372 whole entry): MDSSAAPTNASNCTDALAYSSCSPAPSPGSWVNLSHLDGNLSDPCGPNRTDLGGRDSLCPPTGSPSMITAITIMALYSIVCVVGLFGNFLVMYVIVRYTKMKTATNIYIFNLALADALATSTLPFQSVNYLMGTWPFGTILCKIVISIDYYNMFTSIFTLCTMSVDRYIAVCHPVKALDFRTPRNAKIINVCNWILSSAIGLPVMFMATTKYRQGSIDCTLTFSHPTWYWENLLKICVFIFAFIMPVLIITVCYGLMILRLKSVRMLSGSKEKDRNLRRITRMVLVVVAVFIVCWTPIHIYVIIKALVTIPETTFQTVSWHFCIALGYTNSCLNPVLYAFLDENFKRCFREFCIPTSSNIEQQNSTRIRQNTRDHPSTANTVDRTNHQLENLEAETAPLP

[11] = target: T3, Delta-type opioid receptor (Homo sapiens, UniProt P41143); experiment: DOR agonists, SAR follow-up, image-based (AID 2370)
T3 sequence (P41143 whole entry): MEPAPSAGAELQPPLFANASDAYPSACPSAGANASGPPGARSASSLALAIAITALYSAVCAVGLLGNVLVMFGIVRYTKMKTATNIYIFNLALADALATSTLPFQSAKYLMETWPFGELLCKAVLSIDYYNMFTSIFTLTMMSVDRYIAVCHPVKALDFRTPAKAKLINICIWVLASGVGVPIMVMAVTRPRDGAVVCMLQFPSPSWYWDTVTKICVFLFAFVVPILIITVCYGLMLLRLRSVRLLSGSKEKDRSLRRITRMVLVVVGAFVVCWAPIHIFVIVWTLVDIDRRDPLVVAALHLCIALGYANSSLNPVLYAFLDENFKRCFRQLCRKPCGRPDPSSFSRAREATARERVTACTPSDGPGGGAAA

[12] = target: T1, Kappa-type opioid receptor; experiment: KOR antagonists by imaging, SAR follow-up, image-based (AID 2348)
[13] = target: T2, Mu-type opioid receptor; experiment: MOR antagonists, SAR follow-up, image-based (AID 2420);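 note: compounds added before stimulation of receptor with agonist DAMGO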
[14] = target: T1, Kappa-type opioid receptor; experiment: KOR agonist analogs, imaging readout, SAR follow-up, image-based (AID 2359)
[15] = target: T3, Delta-type opioid receptor; experiment: DOR antagonists, SAR follow-up, image-based (AID 2357)
[16] = tested on: CHO-K1; experiment: (§1) Counterscreen for antagonists of the orexin 1 receptor (OX1R; HCRTR1): Homogeneous time resolved fluorescence (HTRF)-based cell-based dose response assay to identify antagonists of the parental CHO-K1 cell line. [Related pubchem assays (depositor defined):AID434989, AID435008, AID463079, AID485270, AID492963, AID492964, AID492965, AID493232, AID504699, AID504701]; details: Cricetulus griseus
[17] = as §1, with “Fluorescence-based” for “Homogeneous time resolved fluorescence (HTRF)-based”, “cell-based high throughput” for “cell-based”, “CHO” for “CHO-K1”
[18] = target: T4, Orexin/Hypocretin receptor type 1 (Homo sapiens, UniProt O43613); experiment: Homogeneous Time Resolved Fluorescence (HTRF)-based cell-based high throughput dose response assay for antagonists of the orexin 1 receptor (OX1R; HCRTR1). [Related pubchem assays (depositor defined):AID434989, AID435008, AID463079, AID485270, AID492963, AID492964, AID492965, AID493232, AID504717, AID504718]
T4 sequence (O43613 whole entry): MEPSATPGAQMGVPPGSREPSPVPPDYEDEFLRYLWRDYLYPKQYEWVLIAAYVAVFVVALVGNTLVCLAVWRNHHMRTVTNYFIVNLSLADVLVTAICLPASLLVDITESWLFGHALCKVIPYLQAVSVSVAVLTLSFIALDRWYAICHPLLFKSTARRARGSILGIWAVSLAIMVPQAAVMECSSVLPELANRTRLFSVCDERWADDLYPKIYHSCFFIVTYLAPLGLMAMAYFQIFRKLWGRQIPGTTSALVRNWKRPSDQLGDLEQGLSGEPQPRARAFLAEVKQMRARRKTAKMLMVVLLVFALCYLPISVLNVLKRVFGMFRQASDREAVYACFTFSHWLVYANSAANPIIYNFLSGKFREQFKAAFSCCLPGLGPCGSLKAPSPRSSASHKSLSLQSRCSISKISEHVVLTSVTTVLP

[19] = target: T4, Orexin/Hypocretin receptor type 1; experiment: Fluorescence-based cell-based high throughput dose response assay for antagonists of the orexin 1 receptor (OX1R; HCRTR1). [Related pubchem assays (depositor defined):AID434989, AID435008, AID463079, AID485270, AID492963, AID492964, AID492965, AID493232, AID504717, AID504718]
[20] = target: T5, Orexin receptor type 2 (Homo sapiens, UniProt O43614); experiment: Counterscreen assay for antagonists of the orexin 1 receptor (OX1R; HCRTR1): Fluorescence-based cell-based dose response assay for antagonists of the orexin 2 receptor (OX2R; HCRTR2), run by assay provider.
T5 sequence (O43614 whole entry): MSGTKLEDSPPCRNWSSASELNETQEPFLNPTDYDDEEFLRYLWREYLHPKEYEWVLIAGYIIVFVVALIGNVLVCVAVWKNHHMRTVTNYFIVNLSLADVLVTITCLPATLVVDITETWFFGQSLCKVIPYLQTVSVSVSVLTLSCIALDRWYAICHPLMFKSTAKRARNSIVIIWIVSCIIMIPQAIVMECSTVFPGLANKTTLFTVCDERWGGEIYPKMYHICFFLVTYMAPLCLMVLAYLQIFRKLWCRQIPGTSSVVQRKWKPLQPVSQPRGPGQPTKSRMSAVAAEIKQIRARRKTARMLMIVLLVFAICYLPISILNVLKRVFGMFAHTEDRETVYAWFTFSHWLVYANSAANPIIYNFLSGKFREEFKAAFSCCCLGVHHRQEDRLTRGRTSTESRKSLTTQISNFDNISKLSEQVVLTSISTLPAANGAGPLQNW

[21] = target: T5, Orexin receptor type 2; experiment: Counterscreen assay for antagonists of the orexin 1 receptor (OX1R; HCRTR1): Homogeneous Time Resolved Fluorescence (HTRF)-based cell-based dose response assay for antagonists of the orexin 2 receptor (OX2R; HCRTR2), run by assay provider.
[22] = target: Cysteine protease ATG4B (Homo sapiens, UniProt Q9Y4P1);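 note: Fluorescence-based dose-response confirmation assay measuring inhibition of ATG4B activity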
Chain of Cysteine protease ATG4B (Q9Y4P1 whole entry): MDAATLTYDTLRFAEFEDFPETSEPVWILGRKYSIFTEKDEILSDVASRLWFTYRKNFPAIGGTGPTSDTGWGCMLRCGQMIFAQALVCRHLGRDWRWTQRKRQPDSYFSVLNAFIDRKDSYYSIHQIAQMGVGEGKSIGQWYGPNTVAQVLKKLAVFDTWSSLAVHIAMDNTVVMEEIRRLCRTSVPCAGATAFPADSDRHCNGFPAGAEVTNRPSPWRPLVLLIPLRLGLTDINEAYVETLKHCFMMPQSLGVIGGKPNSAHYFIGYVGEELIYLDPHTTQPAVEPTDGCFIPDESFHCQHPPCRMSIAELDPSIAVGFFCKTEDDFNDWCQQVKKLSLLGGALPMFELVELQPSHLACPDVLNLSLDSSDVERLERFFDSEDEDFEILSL

[23] = target: Phospholipase A2 (Homo sapiens, UniProt P04054);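 note: confirmatory dose-response counterscreen on phospholipase A2, testing hits that came from an ultra-high-throughput screen for ATG4B inhibitors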
Chain of Phospholipase A2 (P04054 whole entry): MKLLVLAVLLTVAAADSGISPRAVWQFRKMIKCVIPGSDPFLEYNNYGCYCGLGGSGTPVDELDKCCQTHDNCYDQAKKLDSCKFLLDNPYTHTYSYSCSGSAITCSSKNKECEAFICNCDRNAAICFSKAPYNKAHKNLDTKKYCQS

SMILES: Cc1cccc(Nc2nnc(-c3ccc(C(=O)N4C[C@H]5C[C@H](C4)c4cccc(=O)n4C5)cc3)c3ccccc23)c1
EC50 [1]: 2.12 µM (active) and 1.66 µM (active)

SMILES: CC(Sc1nc2c(cc1C#N)CCCCC2)C(=O)O (centres undefined)
AC50 [2]: > 60 µM (inactive)

SMILES: Cc1cccc(/C=N/NC(=O)c2cc3c(s2)-c2ccccc2CC3)c1
IC50 [16]: > 66.2 µM (inactive) | IC50 [17]: > 49.8 µM (inactive) | IC50 [18]: 2.13 µM (active) | IC50 [19]: 2.81 µM (active) | IC50 [20]: > 88.8 µM (inactive) | IC50 [21]: > 50 µM (inactive)

Now from value to compound:

Ki [3]: 5.01 µM (active) | Ki [4]: 2 µM (active) | Ki [5]: 5.01 µM (active) | Ki [6]: 5.01 µM (active) | Ki [7]: 5.01 µM (active) | Ki [8]: 7.94 µM (active)
SMILES: O=c1cc(C(F)(F)F)c2c(-c3cccc(C(F)(F)F)c3)n[nH]c2[nH]1

EC50 [9]: > 10 µM (inactive) | EC50 [10]: > 32 µM (inactive) | EC50 [11]: > 32 µM (inactive) | IC50 [12]: > 32 µM (inactive) | IC50 [13]: > 32 µM (inactive) | EC50 [14]: > 32 µM (inactive) | IC50 [15]: > 32 µM (inactive)
SMILES: CCCN(Cc1cc2cc(C)ccc2[nH]c1=O)C(=O)c1ccccn1

IC50 [22]: 9.88 µM (active) | IC50 [23]: 9.06 µM (active)
SMILES: Cc1nn(Cc2c(Cl)cccc2Cl)c(C)c1NC(=O)CCCn1nc([N+](=O)[O-])c(Cl)c1C

AC50 [2]: 10.6 µM (active)
SMILES: CN(C)c1ccc(C(=O)OCC(=O)N2CCCC2)cc1
